The results in this text go back to patent publication US8912169B2, “Beta-lactamase inhibitors” (VenatoRx Pharmaceuticals, Inc., priority 2012, dated 2014).

Molecules are shown by their SMILES.

What all share (format): biochemical
For one assay, the target named is T1, KPC-2 (Klebsiella pneumoniae, UniProt Q9F663).
T1 construct: made in house; host or cells: E. coli BL21(DE3)
Put plainly: β-lactamase enzyme inhibition, KPC-2. The note with it: substrate imipenem, 300 nm; read-out: Class A KPC-2 IC50. The procedure: (§1) For SHV-5, Kpc-2, p99AmpC and OXA-1 β-lactamases, E. coli BL21(DE3) bacterial cells carrying expression plasmids (expressed as native untagged proteins) for the individual β-lactamases were grown in 1 L of Superbroth (Teknova Inc. Hollister, Calif.) supplemented with 100 μg/mlkanamycin selection and 1×5052 (0.5% glycerol, 0.05% glucose and 0.2% α-lactose) at 35° C. for 18-20 hours. Cells were harvested by centrifugation (4,000×g, 4° C., 20 min), resuspended in 50 ml of 10 mM HEPES pH 7.5 ( 1/20 of the initial volume). The cells were lysed by sonication (5 pulses of 45 seconds) at 45 W on ice. The lysates were clarified by centrifugation at 10,000×g for 40 minutes at 4° C. Samples were diluted 5-fold in 50 mM sodium acetate pH 5.0, stored overnight at 4° C., after which they were centrifuged at 10,000×g for 30 minutes to clarify, and filtered through 0.45 μm filters. The samples were loaded onto a 5 ml Capto S sepharose cation exchange column (GE Healthcare) pre-equilibrated with 50 mM sodium acetate pH 5.0. The column was washed with 5 column volumes of 50 mM sodium acetate pH 5.0 to wash out unbound protein and a linear gradient of NaCl (0 to 500 mM) was used to elute the protein (over 16 CV) from the column. Fractions were assayed for β-lactamase activity using Centa (Calbiochem, Gibbstown, N.J.) or Nitrocefin (EMD Millipore chemicals, Darmstadt, Germany) as a reporter β-lactamase substrate for activity in the isolated fractions. Active fractions were pooled, concentrated and further purified by gel filtration chromatography on a Superdex 75 prep grade gel filtration column (GE Healthcare, Piscataway, N.J.) pre-equilibrated in 50 mM Hepes pH 7.5, 150 mM NaCl. Active fractions were pooled concentrated, quantitated by BCA protein determination (Thermo Scientific, Rockford, Ill.), dialyzed into PBS and frozen at −80° C. in 20% glycerol until use.
(§2) An equal volume of diluted enzyme stock was added, and the plates were incubated at 37° C. for 15 min. Nitrocefin was used as substrate for p99 AmpC, VIM-2 and OXA-1 and dispensed into each well at a final concentration of 100 μM. Absorbance at 486 nm was immediately monitored for 10 min using a Biotek Powerwave XS2 microplate spectrophotometer using the GENS software package (Biotek Instruments, Winooski Vt.). In an analogous fashion, imipenem was used as substrate for Kpc-2 and Cefotaxime was used for SHV-5, while changes in absorbance upon hydrolysis of the β-lactam ring were monitored at 300 nm and 260 nm respectively in UV-transparent 96-well microtiter assay plates. Maximum rates of hydrolysis were compared to those in control wells (without inhibitors), and percentages of enzyme inhibition were calculated for each concentration of inhibitor. The concentration of inhibitor needed to reduce the initial rate of hydrolysis of substrate by 50% (IC50) was calculated as the residual activity of β-lactamase at 486 nm using GraFit version 7 kinetics software package (Erithacus Software, Surrey, UK).
(§3) Using the methodology described above, examples of the current invention were evaluated for their ability to inhibit β-lactamase enzymes from all four Ambler classifications (A through D). […] NT=Not tested.

The next assay deals with T2, VIM-2 (Escherichia coli, UniProt Q5U7L7).
T2 construct: made in house; host or cells: E. coli BL21(DE3)
Nature of the assay: β-lactamase enzyme inhibition, VIM-2. The note with it: substrate Nitrocefin 100 μM, 486 nm; read-out: Class B VIM-2 IC50. The procedure:
For Vim-2 metallo β-lactamase, the procedure was identical with the following exceptions, first the protein was not pH adjusted to pH 5 with 50 mM sodium acetate, second, the chromatography step was changed to a 5 ml Q sepharose anion exchange column pre-equilibrated with 50 mM Hepes pH 7.5, and elution of the protein was achieved by a linear gradient of NaCl (0-600 mM). Finally, the VIM-2 purification required a second run (3rd step) on the Q sepharose anion exchange column to achieve acceptable purity (>90%).
as §2, §3

For the next assay, the target named is T3, OXA-1 (Escherichia coli, UniProt P13661).
T3 construct: made in house; host or cells: E. coli BL21(DE3)
Nature of the assay: β-lactamase enzyme inhibition, OXA-1. The note with it: substrate Nitrocefin 100 μM, 486 nm; read-out: Class D OXA-1 IC50. The protocol: as §1, §2, §3

In another assay the target is T4, p99 AmpC (Enterobacter cloacae, UniProt P05364).
T4 construct: made in house; host or cells: E. coli BL21(DE3)
Put plainly: β-lactamase enzyme inhibition, p99 AmpC. The protocol: as §1, §2, §3

The target of another assay is T5, SHV-5 (Klebsiella pneumoniae, UniProt P0A3M1).
T5 construct: made in house; host or cells: E. coli BL21(DE3)
Nature of the assay: β-lactamase enzyme inhibition, SHV-5. The procedure:
as §1, §2, §3

One may read the IC50 as the concentration needed to halve the response being measured. As to `O=C(C[C@H]1CC[C@H](N2C=NCC2)CC1)N[C@H]1Cc2cccc(C(=O)O)c2OB1O` [Example 29, (R)-3-(2-(trans-4-(4,5-dihydro-1H-imidazol-1-yl)cyclohexyl)acetamido)-2-hydroxy-3,4-dihydro-2H-benzo[e][1,2]oxaborinine-8-carboxylic acid], the IC50 was under 0.1 µM at KPC-2; 0.1 to 1 µM at VIM-2; under 0.1 µM at OXA-1; under 0.1 µM against p99 AmpC; under 0.1 µM against SHV-5.

For `N=CN[C@H]1CC[C@H](CC(=O)N[C@H]2Cc3cccc(C(=O)O)c3OB2O)CC1` [Example 30, (R)-3-(2-(trans-4-formimidamidocyclohexyl)acetamido)-2-hydroxy-3,4-dihydro-2H-benzo[e][1,2]oxaborinine-8-carboxylic acid], the 50% inhibitory concentration (IC50) was under 0.1 µM at KPC-2; 0.1 to 1 µM on VIM-2; 0.1 to 1 µM at OXA-1; under 0.1 µM against p99 AmpC; under 0.1 µM against SHV-5.

Regarding `O=C(CC1CCCCC1)N[C@H]1Cc2cccc(C(=O)O)c2OB1O` [Example 31, (R)-3-(2-cyclohexylacetamido)-2-hydroxy-3,4-dihydro-2H-benzo[e][1,2]oxaborinine-8-carboxylic acid], the IC50 is under 0.1 µM on KPC-2; 1 to 10 µM on VIM-2; under 0.1 µM at OXA-1; under 0.1 µM at p99 AmpC; under 0.1 µM on SHV-5.

With `O=C(C[C@H]1CC[C@H](NCc2ccccn2)CC1)N[C@H]1Cc2cccc(C(=O)O)c2OB1O` [Example 32, (R)-2-hydroxy-3-(2-(trans-4-(pyridin-2-ylmethylamino)cyclohexyl)acetamido)-3,4-dihydro-2H-benzo[e][1,2]oxaborinine-8-carboxylic acid], the IC50 at KPC-2 is under 0.1 µM; on VIM-2 it was 0.1 to 1 µM; on OXA-1 it was under 0.1 µM; against p99 AmpC, under 0.1 µM; against SHV-5, under 0.1 µM.

As for `O=C(C[C@H]1CC[C@H](NCC2CCNCC2)CC1)N[C@H]1Cc2cccc(C(=O)O)c2OB1O` [Example 33, (R)-2-hydroxy-3-(2-(trans-4-(piperidin-4-ylmethylamino)cyclohexyl)acetamido)-3,4-dihydro-2H-benzo[e][1,2]oxaborinine-8-carboxylic acid], the IC50 at KPC-2 is under 0.1 µM; on VIM-2, 0.1 to 1 µM; at OXA-1, under 0.1 µM; on p99 AmpC, under 0.1 µM; against SHV-5 it was under 0.1 µM.

As for `N=C(N)N1CCC(CN[C@H]2CC[C@H](CC(=O)N[C@H]3Cc4cccc(C(=O)O)c4OB3O)CC2)CC1` [Example 34, (R)-3-(2-(trans-4-((1-carbamimidoylpiperidin-4-yl)methylamino)cyclohexyl)acetamido)-2-hydroxy-3,4-dihydro-2H-benzo[e][1,2]oxaborinine-8-carboxylic acid], the IC50 on KPC-2 is under 0.1 µM; at VIM-2, 0.1 to 1 µM; at OXA-1, under 0.1 µM; against p99 AmpC, under 0.1 µM; against SHV-5 it was under 0.1 µM.

Regarding `N[C@H]1CC(CC(=O)N[C@H]2Cc3cccc(C(=O)O)c3OB2O)C[C@@H]1N` [Example 37], the IC50 at KPC-2 is under 0.1 µM; on VIM-2, 0.1 to 1 µM; on OXA-1 it was under 0.1 µM; against p99 AmpC, under 0.1 µM; against SHV-5 it was 1 to 10 µM.

As for `CC(NC(=O)C1C[C@H](N)[C@@H](N)C1)C(=O)N[C@H]1Cc2cccc(C(=O)O)c2OB1O` (some centres unmarked) [Example 38], the IC50 on KPC-2 was 0.1 to 1 µM; at VIM-2 it was 0.1 to 1 µM; at OXA-1, 0.1 to 1 µM; on p99 AmpC it was under 0.1 µM; on SHV-5 it was under 0.1 µM.

As to `O=C(C[C@H]1CC[C@H](NCc2nccs2)CC1)N[C@H]1Cc2cccc(C(=O)O)c2OB1O` [Example 39], the IC50 at KPC-2 is under 0.1 µM; at VIM-2, 1 to 10 µM; on OXA-1 it was under 0.1 µM; at p99 AmpC it was under 0.1 µM; at SHV-5, under 0.1 µM.

`O=C(CC1CCC(N2CCOCC2)CC1)N[C@H]1Cc2cccc(C(=O)O)c2OB1O` (stereo partly drawn) [Example 40, (R)-2-hydroxy-3-(2-(4-morpholinocyclohexyl)acetamido)-3,4-dihydro-2H-benzo[e][1,2]oxaborinine-8-carboxylic acid]: the IC50 was under 0.1 µM at KPC-2; under 0.1 µM at VIM-2; under 0.1 µM at OXA-1; under 0.1 µM against p99 AmpC; 0.1 to 1 µM at SHV-5.

Turning to `N[C@@H](C(=O)N[C@H]1Cc2cccc(C(=O)O)c2OB1O)C1CCCCC1` [Example 42, (R)-3-((R)-2-amino-2-cyclohexylacetamido)-2-hydroxy-3,4-dihydro-2H-benzo[e][1,2]oxaborinine-8-carboxylic acid], the IC50 on KPC-2 was under 0.1 µM; on VIM-2, 1 to 10 µM; at OXA-1, 0.1 to 1 µM; against p99 AmpC, under 0.1 µM; at SHV-5, 0.1 to 1 µM.

Consider `NCCNC1CCC(O)(CC(=O)N[C@H]2Cc3cccc(C(=O)O)c3OB2O)CC1` (some centres unmarked) [Example 43, 3-{2-[4-(2-Amino-ethylamino)-1-hydroxy-cyclohexyl]-acetylamino}-2-hydroxy-3,4-dihydro-2H-benzo[e][1,2]oxaborinine-8-carboxylic acid], for which the IC50 on KPC-2, at VIM-2, on OXA-1, against p99 AmpC and on SHV-5 was under 0.1 µM each time.

On to `NC1CCC(O)(CC(=O)N[C@H]2Cc3cccc(C(=O)O)c3OB2O)CC1` (some centres unmarked) [Example 44, 3-[2-(4-Amino-1-hydroxy-cyclohexyl)-acetylamino]-2-hydroxy-3,4-dihydro-2H-benzo[e][1,2]oxaborinine-8-carboxylic acid], for which the IC50 on KPC-2 fell in the range of 0.1 to 1 µM; at VIM-2, 1 to 10 µM; at OXA-1, 0.1 to 1 µM; against p99 AmpC it was 0.1 to 1 µM; at SHV-5 it was 0.1 to 1 µM.

`N[C@H]1CC[C@H](NCC(=O)N[C@H]2Cc3cccc(C(=O)O)c3OB2O)CC1` [Example 45, 3-[2-(4-Amino-cyclohexylamino)-acetylamino]-2-hydroxy-3,4-dihydro-2H-benzo[e][1,2]oxaborinine-8-carboxylic acid]: the IC50 is under 0.1 µM on KPC-2; 1 to 10 µM at VIM-2; 0.1 to 1 µM at OXA-1; under 0.1 µM at p99 AmpC; under 0.1 µM on SHV-5.

For `NCCN[C@H]1CC[C@@H](CC(=O)N[C@H]2Cc3cccc(C(=O)O)c3OB2O)CC1` [Example 46, (R)-3-(2-(cis-4-(2-aminoethylamino)cyclohexyl)acetamido)-2-hydroxy-3,4-dihydro-2H-benzo[e][1,2]oxaborinine-8-carboxylic acid], the IC50 on KPC-2 is under 0.1 µM; at VIM-2, 0.1 to 1 µM; at OXA-1, under 0.1 µM; at p99 AmpC, under 0.1 µM; at SHV-5 it was 0.1 to 1 µM.

In the case of `O=C(C[C@H]1CC[C@H](NCCNc2ccccn2)CC1)N[C@H]1Cc2cccc(C(=O)O)c2OB1O` [Example 48, (R)-2-hydroxy-3-(2-(trans-4-(2-(pyridin-2-ylamino)ethylamino)cyclohexyl)acetamido)-3,4-dihydro-2H-benzo[e][1,2]oxaborinine-8-carboxylic acid], the IC50 is under 0.1 µM at KPC-2; 0.1 to 1 µM at VIM-2; under 0.1 µM on OXA-1; under 0.1 µM on p99 AmpC; under 0.1 µM on SHV-5.
